Measured values taken from publication PMC4929166, “Pharmacological evaluation of synthetic cannabinoids identified as constituents of spice” (Forensic Toxicology, 2016).

Experiments:
human GPR55 = target: T1, human GPR55 (Homo sapiens, UniProt Q9Y2T6); assay: β-Arrestin recruitment assay (PathHunter) at GPR55; format: cell-based; details: for IC50: Human GPR55 IC50, β-arrestin assay, antagonist mode; for Human GPR55 % activation / Human GPR55 % inhibition: β-arrestin assay; for Human GPR55 % activation: percent in brackets beside EC50 >10 µM; for Human GPR55 % inhibition: percent in brackets beside IC50
T1 construct: β-galactosidase enzyme fragment (PathHunter complementation tag)
Method: (§1) Recruitment of β-arrestin to the respective receptor was detected by using β-galactosidase enzyme fragment complementation technology (β-arrestin PathHunter™ assay, DiscoverX, Fremont, CA, USA) as previously described. Data were obtained from three independent experiments, performed in duplicates. Data were analyzed using Graph Pad Prism Version 4.02 (San Diego, CA, USA).

CB1 receptor = CB1 receptor (Homo sapiens, UniProt P21554); assay: biochemical; format: binding; set-up: expressed in transfected cells; host or cells: CHO cells (membrane preparation); details: for Ki: versus 0.1 nM [3H]CP55,940, CHO cell membranes, mean ± SEM of three to five experiments, read-out: Ki ± SEM Human CB1; for CB1 selectivity Ki CB2/KiCB1: Table S1, selectivity index from Ki values
CB2 receptor = CB2 receptor (Homo sapiens, UniProt P34972); assay: biochemical; format: binding; set-up: expressed in transfected cells; host or cells: CHO cells (membrane preparation); details: for CB2 selectivity Ki CB1/KiCB2: Table S1, selectivity index from Ki values; for Ki: versus 0.1 nM [3H]CP55,940, CHO cell membranes, mean ± SEM of three to five experiments, read-out: Ki ± SEM Human CB2
human GPR18 = target: T2, human GPR18 (Homo sapiens, UniProt Q14330); assay: β-Arrestin recruitment assay (PathHunter) at GPR18; format: cell-based; details: for Human GPR18 % activation / Human GPR18 % inhibition: β-arrestin assay; for Human GPR18 % activation: percent in brackets beside EC50 >10 µM; for Human GPR18 % inhibition: percent in brackets beside IC50
T2 construct: β-galactosidase enzyme fragment (PathHunter complementation tag)
T2 sequence (Q14330 1-331): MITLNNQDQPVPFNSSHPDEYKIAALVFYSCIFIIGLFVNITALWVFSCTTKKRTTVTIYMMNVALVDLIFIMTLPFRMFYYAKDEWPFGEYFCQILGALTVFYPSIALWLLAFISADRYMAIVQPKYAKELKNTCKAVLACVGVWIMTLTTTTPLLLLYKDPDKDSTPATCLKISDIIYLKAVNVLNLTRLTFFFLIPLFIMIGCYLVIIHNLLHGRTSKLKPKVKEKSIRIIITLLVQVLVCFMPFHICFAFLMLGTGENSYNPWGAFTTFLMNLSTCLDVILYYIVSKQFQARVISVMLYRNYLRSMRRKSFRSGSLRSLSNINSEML
Method: as §1

T1 sequence (Q9Y2T6 whole entry, the tested form may be a part): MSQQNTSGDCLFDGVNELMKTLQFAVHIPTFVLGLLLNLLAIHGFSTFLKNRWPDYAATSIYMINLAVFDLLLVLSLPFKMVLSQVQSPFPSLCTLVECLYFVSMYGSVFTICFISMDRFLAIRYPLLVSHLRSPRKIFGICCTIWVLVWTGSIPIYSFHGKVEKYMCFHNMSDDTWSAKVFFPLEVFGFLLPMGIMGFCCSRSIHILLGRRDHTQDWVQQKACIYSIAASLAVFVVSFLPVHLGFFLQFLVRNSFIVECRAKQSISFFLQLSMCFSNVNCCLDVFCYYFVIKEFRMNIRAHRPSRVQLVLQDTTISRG
Sequence of CB1 receptor (P21554 whole entry): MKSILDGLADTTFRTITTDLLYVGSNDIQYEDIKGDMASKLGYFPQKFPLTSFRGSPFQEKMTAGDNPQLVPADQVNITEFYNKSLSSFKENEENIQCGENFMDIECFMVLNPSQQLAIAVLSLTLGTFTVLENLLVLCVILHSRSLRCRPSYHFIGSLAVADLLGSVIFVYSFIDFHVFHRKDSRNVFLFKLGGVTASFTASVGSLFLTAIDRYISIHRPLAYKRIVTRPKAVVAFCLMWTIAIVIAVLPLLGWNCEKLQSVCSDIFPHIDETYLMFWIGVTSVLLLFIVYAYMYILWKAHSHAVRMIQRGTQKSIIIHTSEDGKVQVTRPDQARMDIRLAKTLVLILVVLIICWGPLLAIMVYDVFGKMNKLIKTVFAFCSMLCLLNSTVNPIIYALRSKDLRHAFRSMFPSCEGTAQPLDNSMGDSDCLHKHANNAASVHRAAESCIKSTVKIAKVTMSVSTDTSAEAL
Sequence of CB2 receptor (P34972 whole entry): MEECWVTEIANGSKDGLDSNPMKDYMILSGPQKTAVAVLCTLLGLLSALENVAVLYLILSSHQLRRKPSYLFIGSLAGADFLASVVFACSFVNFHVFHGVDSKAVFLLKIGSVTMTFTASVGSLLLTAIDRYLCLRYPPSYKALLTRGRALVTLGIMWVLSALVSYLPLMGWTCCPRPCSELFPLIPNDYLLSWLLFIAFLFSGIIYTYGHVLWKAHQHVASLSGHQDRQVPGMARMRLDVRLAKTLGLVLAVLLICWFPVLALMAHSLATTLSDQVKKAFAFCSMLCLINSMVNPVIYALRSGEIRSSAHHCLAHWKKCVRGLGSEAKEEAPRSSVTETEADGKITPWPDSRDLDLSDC

SMILES | EC50 (human GPR55) [µM] | IC50 (human GPR55) [µM] | Human GPR55 % activation (human GPR55) [%] | Ki (CB1 receptor) [µM] | CB2 selectivity Ki CB1/KiCB2 (CB2 receptor) | Ki (CB2 receptor) [µM] | Human GPR55 % inhibition (human GPR55) [%] | EC50 (human GPR18) [µM] | IC50 (human GPR18) [µM] | Human GPR18 % activation (human GPR18) [%] | Human GPR18 % inhibition (human GPR18) [%] | CB1 selectivity Ki CB2/KiCB1 (CB1 receptor) | fold higher Ki value at CB1 receptors after introduction of a quinoline (CB1 receptor; amide-linked group A, compared with naphthyl analogue (8 vs 10; 9 vs 11)) [fold]
Cc1ccc(C(=O)c2cn(CCCC(C)F)c3ccccc23)c2ccccc12 (stereo not drawn) [Compound 32, MAM-2201-4-fluoropentyl-isomer] | > 10 | 3.07 ± 1.48 | −41 | 0.00323 ± 0.00156 | 4.0 | 0.000808 ± 5.7e-05 |  |  |  |  |  |  | 
CC1(C)C(C(=O)c2nn(CCCCCF)c3ccccc23)C1(C)C [Compound 40, FAB-144] | > 10 | ~10 | 5 | 0.0175 ± 0.0011 | 38.9 | 0.00045 ± 0.000111 | 77 | > 10 | ~10 | 2 | 57 |  | 
CCCC(F)Cn1cc(C(=O)C2C(C)(C)C2(C)C)c2ccccc21 (stereo not drawn) [Compound 39, XLR-11-2-fluoropentyl-isomer] | > 10 | 5.69 ± 1.95 | −8 | 0.0595 ± 0.0169 | 32.5 | 0.00183 ± 0.00047 |  | > 10 | > 10 | 24 | 29 |  | 
O=C(Nc1cccc2ccccc12)c1cn(CCCCCCl)c2ccccc12 [Compound 6, 5Cl-NNEI] | > 10 | > 10 | 28 | 0.0102 ± 0.0022 |  | 0.0328 ± 0.0108 | 5 | > 10 | > 10 | 1 | −13 | 3.2 | 
O=C(Oc1cccc2ccccc12)c1cn(Cc2ccc(F)cc2)c2ccccc12 [Compound 20, FDU-PB-22] | > 10 | > 10 | 11 | 0.00119 ± 0.00039 |  | 0.00243 ± 0.00092 | 30 | > 10 | > 10 | 30 | −4 | 2.0 | 
COc1ccccc1CC(=O)c1cn(CCC2CCCCC2)c2ccccc12 [Compound 34, RCS-8] |  |  |  | 0.0813 ± 0.0158 | 5.6 | 0.0146 ± 0.0061 |  |  |  |  |  |  | 
Cc1ccc(C(=O)c2cn(CCCCCF)c3ccccc23)c2ccccc12 [Compound 30, MAM-2201] |  |  |  | 0.00158 ± 0.00076 | 2.7 | 0.000582 ± 0.000123 |  |  |  |  |  |  | 
Cc1c(C(=O)C2C(C)(C)C2(C)C)c2ccccc2n1CCCCCF [Compound 47, M-144] | > 10 | ~10 | −5 | 0.0194 ± 0.0078 | 4.2 | 0.00459 ± 0.00148 | 86 | > 10 | ~10 | −7 | 67 |  | 
O=C(Nc1cccc2cccnc12)c1nn(CCCCCF)c2ccccc12 [Compound 11, 5F-THJ] | > 10 | > 10 | 28 | 0.0226 ± 0.0075 | 8.2 | 0.00275 ± 0.00099 |  | > 10 | > 10 | −17 | 44 |  | 27
O=C(Nc1cccc2ccccc12)c1cn(CCCCCF)c2ccccc12 [Compound 5, 5F-NNEI] | > 10 | > 10 | 25 | 0.00369 ± 0.00197 |  | 0.0134 ± 0.0016 | −8 | > 10 | > 10 | −3 | −17 | 3.6 | 
O=C(Nc1cccc2ccccc12)c1nn(CCCCCF)c2ccccc12 [Compound 9, 5F-MN-18] | > 10 | > 10 | 38 | 0.00165 ± 0.00026 |  | 0.0025 ± 0.00086 | −5 | > 10 | > 10 | −26 | 23 | 1.5 | 
